Laboratory results as given in US12427210B2, “Compounds comprising a fibroblast activation protein ligand and use thereof” (priority 2019, dated 2025).
Numbered stars: 1 amine (or outer) side, 2 acyl side, 3 side chain; on linkers, the order of the positions; unused ones are H or OH. Bridge positions count the residues as written; N and C are the ends. Peptide text beside a SMILES is read from it. * marks the point of attachment. X5 = O=C1CN2CCN3CCN(CC(=O)N4CCN(Cc5cc(C[*:1])cc(C[*:2])c5)CC4)CCN(CC2)CC(=O)[O][Eu]([O]1)[O]C(=O)C3; Hexanoyl = CCCCCC(=O)*

What was measured:
5-HT2B (h) = 5-HT2B (h) (Homo sapiens, UniProt P41595); details: read-out: Ki Ref; reference compound
Renin = target: T1, Renin (Homo sapiens, UniProt P00797); experiment: biochemical; details: read-out: Percentage inhibition (%), Reference
T1 sequence (P00797 67-406): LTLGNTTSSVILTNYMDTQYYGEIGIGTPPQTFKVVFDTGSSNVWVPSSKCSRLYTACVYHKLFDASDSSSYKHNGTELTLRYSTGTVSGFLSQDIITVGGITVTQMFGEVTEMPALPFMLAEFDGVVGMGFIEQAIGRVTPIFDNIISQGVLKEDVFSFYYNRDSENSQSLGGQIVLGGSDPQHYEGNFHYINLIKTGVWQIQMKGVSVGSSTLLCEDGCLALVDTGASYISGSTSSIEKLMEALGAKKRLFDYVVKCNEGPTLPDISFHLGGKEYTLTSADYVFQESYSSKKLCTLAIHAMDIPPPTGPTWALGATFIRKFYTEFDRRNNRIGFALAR

NMDA = details: read-out: Ki Ref; reference compound
Caspase-7 = target: T2, Caspase-7 (Homo sapiens, UniProt P55210); details: 1 μM
T2 sequence (P55210 24-198 limits assumed): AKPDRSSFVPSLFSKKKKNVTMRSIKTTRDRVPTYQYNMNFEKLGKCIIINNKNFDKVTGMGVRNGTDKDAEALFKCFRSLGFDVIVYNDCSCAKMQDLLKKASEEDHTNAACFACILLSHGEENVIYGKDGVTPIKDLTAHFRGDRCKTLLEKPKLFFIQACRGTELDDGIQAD
T2 sequence (P55210 207-303 limits assumed): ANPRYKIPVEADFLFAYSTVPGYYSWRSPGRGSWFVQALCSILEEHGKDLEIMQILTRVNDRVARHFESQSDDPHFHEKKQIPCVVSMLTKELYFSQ

Caspase-3 = target: T3, Caspase-3 (Homo sapiens, UniProt P42574); details: 100 nM
T3 sequence (P42574 29-175 limits assumed): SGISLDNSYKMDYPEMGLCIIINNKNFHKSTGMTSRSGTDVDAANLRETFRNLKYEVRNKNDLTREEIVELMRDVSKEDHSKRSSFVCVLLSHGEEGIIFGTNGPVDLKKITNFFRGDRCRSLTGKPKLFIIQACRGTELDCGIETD
T3 sequence (P42574 176-277 limits assumed): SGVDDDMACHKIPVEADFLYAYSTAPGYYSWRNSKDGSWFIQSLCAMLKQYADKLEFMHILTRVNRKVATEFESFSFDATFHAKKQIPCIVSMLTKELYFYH

in vitro [1] = details: mouse, plasma
FAP [2] = target: T4, FAP (Homo sapiens, UniProt Q12884); experiment: biochemical
in vitro [3] = details: human, plasma
[4] = target: FAP-expressing human WI-38 fibroblasts (Homo sapiens, UniProt Q12884); experiment: cell-based
FAP [5] = target: T4, FAP; experiment: biochemical; remark: listed apart in the source
in vitro [6] = details: rat, plasma
Cathepsin L = Cathepsin L (Homo sapiens, UniProt P07711); details: 1 μM
Cathepsin V = Cathepsin V (Homo sapiens, UniProt O60911); details: 100 nM
Cathepsin S = Cathepsin S (Homo sapiens, UniProt P25774); details: 100 nM
Cathepsin B = Cathepsin B (Homo sapiens, UniProt P07858); details: 100 nM
Activated Protein C = Activated Protein C (Homo sapiens, UniProt P04070); experiment: biochemical; details: read-out: Percentage inhibition (%), Reference
alpha 1A (h) = target: T5, alpha 1A (h) (Homo sapiens, UniProt P35348); details: read-out: Ki Ref; reference compound
T5 sequence (P35348 1-466): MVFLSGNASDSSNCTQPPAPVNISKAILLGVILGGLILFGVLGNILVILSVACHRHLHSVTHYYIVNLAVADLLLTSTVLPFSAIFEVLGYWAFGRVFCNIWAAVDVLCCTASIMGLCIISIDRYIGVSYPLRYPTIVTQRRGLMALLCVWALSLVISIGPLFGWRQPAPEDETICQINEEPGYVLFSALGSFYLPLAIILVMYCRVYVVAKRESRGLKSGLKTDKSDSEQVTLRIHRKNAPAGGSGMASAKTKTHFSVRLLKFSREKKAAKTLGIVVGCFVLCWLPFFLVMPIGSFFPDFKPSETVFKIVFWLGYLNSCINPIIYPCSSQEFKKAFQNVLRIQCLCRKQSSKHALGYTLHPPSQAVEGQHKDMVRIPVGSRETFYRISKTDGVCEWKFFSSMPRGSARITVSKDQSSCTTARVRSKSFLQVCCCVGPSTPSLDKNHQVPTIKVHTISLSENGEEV

Sarc4809 PDX tumors = experiment: Efficacy study sarcoma Sarc4809 PDX model
HEK-FAP tumors = experiment: Efficacy study HEK-FAP
Cathepsin F = target: T6, Cathepsin F (Homo sapiens, UniProt Q9UBX1); details: 1 μM
T6 sequence (Q9UBX1 271-484): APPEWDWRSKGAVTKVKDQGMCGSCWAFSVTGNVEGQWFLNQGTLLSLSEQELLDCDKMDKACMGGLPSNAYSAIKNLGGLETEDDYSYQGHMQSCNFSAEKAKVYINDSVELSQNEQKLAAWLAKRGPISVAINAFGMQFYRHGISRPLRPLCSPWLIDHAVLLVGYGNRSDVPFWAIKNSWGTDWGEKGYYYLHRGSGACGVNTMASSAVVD

KV channel = details: read-out: Ki Ref; reference compound
[7] = throughout the study, all groups

Question: Which Ki (5-HT2B (h)) does the source give for `COc1cc(CC(C)N)c(OC)cc1I` (racemic) [(±)DOI] here?
Answer: 4.2 nM

Question: Which inhibition at 0.03 µM (Renin) does the source give for `COCCCOc1cc(C[C@@H](C[C@H](N)[C@@H](O)C[C@H](C(=O)NCC(C)(C)C(N)=O)C(C)C)C(C)C)ccc1OC` [Aliskiren, reference compound] here?
Answer: 99%

Question: For `O=C(O)[C@@H]1C[C@H](CP(=O)(O)O)CCN1` [CGS 19755, reference compound], which Ki (NMDA) is on record?
Answer: 140 nM

Question: Which “Percentage inhibition (%), Reference” value (Caspase-7) does the source give for `COC[C@@H]1CCCN1S(=O)(=O)c1ccc2c(c1)C(=O)C(=O)N2` [Caspase 3/7 Inhibitor I] here?
Answer: 92%

Question: And the “Percentage inhibition (%), Reference” value (Caspase-3)?
Answer: 89%

Question: With `CCCCCC(=O)N[C@H]1CSCc2cc(CSCCNC(=O)CN3CCN4CCN5CCN(CC3)CC(=O)[O][Lu]([O]C(=O)C4)[O]C(=O)C5)cc(c2)CSC[C@@H](C(=O)O)NC(=O)[C@H](Cc2ccccc2)NC(=O)[C@H](CCC(N)=O)NC(=O)[C@H]([C@@H](C)O)NC(=O)[C@@H]2CCCN2C(=O)[C@@H]2CCCN2C1=O` [Compound 3BP-3624, Hex-[Cys(tMeBn(LuDOTA-AET))-Pro-Pro-Thr-Gln-Phe-Cys]-OH] as the compound, how does the remaining at 24 h, 9.8 µM (in vitro [1]) read?
Answer: 100%

Question: What about the Kd (FAP [2]) of the same compound?
Answer: < 10 nM

Question: And the remaining at 24 h, 9.8 µM (in vitro [3])?
Answer: 100%

Question: And the IC50 [4]?
Answer: < 10 nM

Question: What about the IC50 (FAP [5]) of the same compound?
Answer: < 10 nM

Question: And the remaining at 24 h, 9.8 µM (in vitro [6])?
Answer: 100%

Question: With `CCCCCC(=O)N[C@H]1CSCc2cc(cc(CN3CCN(C(=O)CN4CCN5CCN6CCN(CC4)CC(=O)[O][Eu]([O]C(=O)C6)[O]C(=O)C5)CC3)c2)CSC[C@@H](C(=O)N[C@@H](CC(=O)O)C(N)=O)NC(=O)[C@H](Cc2ccccc2)NC(=O)[C@H](CCC(N)=O)NC(=O)[C@H]([C@@H](C)O)NC(=O)[C@@H]2CCCN2C(=O)[C@@H]2CCCN2C1=O` [Compound 3BP-3661, Hex-[Cys(tMeBn(EuDOTA-PP))-Pro-Pro-Thr-Gln-Phe-Cys]-Asp-NH2] (Hexanoyl-CPPTQFCD-NH2; linker 1-7 via X5) as the compound, how does the IC50 [4] read?
Answer: < 10 nM

Question: And the IC50 (FAP [5])?
Answer: < 10 nM

Question: For `CCCCCC(=O)N[C@H]1CSCc2cc(CSCCNC(=O)CN3CCN4CCN5CCN(CC3)CC(=O)[O][Eu]([O]C(=O)C4)[O]C(=O)C5)cc(c2)CSC[C@@H](C(=O)O)NC(=O)[C@H](Cc2ccccc2)NC(=O)[C@H](CCC(N)=O)NC(=O)[C@H]([C@@H](C)O)NC(=O)[C@@H]2CCCN2C(=O)[C@@H]2CCCN2C1=O` [Compound 3BP-3662, Hex-[Cys(tMeBn(EuDOTA-AET))-Pro-Pro-Thr-Gln-Phe-Cys]-OH], which IC50 [4] is on record?
Answer: < 10 nM

Question: And the IC50 (FAP [5])?
Answer: < 10 nM

Question: With `CCCCCC(=O)N[C@H]1CSCc2cc(CSCCNC(=O)CN3CCN4CCN5CCN(CC3)CC(=O)[O][Ga]([O]C(=O)C4)[O]C(=O)C5)cc(c2)CSC[C@@H](C(=O)O)NC(=O)[C@H](Cc2ccccc2)NC(=O)[C@H](CCC(N)=O)NC(=O)[C@H]([C@@H](C)O)NC(=O)[C@@H]2CCCN2C(=O)[C@@H]2CCCN2C1=O` [Compound 3BP-3949, Hex-[Cys(tMeBn(GaDOTA-AET))-Pro-Pro-Thr-Gln-Phe-Cys]-OH] as the compound, how does the Kd (FAP [2]) read?
Answer: < 10 nM

Question: And the IC50 [4]?
Answer: < 10 nM

Question: What about the IC50 (FAP [5]) of the same compound?
Answer: < 10 nM

Question: For `CCCCCC(=O)N[C@H]1CSCc2cc(CSCCNC(=O)CN3CCN4CCN(CC(=O)O)CCN(CC3)CC(=O)[O][Cu][O]C(=O)C4)cc(c2)CSC[C@@H](C(=O)O)NC(=O)[C@H](Cc2ccccc2)NC(=O)[C@H](CCC(N)=O)NC(=O)[C@H]([C@@H](C)O)NC(=O)[C@@H]2CCCN2C(=O)[C@@H]2CCCN2C1=O` [Compound 3BP-4293, Hex-[Cys-(tMeBn(CuDOTA-AET))-Pro-Pro-Thr-Gln-Phe-Cys]-OH], which IC50 [4] is on record?
Answer: < 10 nM

Question: What about the IC50 (FAP [5]) of the same compound?
Answer: < 10 nM

Question: Which IC50 [4] does the source give for `CCCCCC(=O)N[C@H]1CSCc2cc(CSCCNC(=O)CN3CCN4CCN(CC(=O)O)CCN(CC3)CC(=O)[O][Zn][O]C(=O)C4)cc(c2)CSC[C@@H](C(=O)O)NC(=O)[C@H](Cc2ccccc2)NC(=O)[C@H](CCC(N)=O)NC(=O)[C@H]([C@@H](C)O)NC(=O)[C@@H]2CCCN2C(=O)[C@@H]2CCCN2C1=O` [Compound 3BP-4343, Hex-[Cys-(tMeBn(ZnDOTA-AET))-Pro-Pro-Thr-Gln-Phe-Cys]-OH] here?
Answer: < 10 nM

Question: And the IC50 (FAP [5])?
Answer: < 10 nM

Question: For `CC(C)C[C@H](NC(=O)[C@H]1O[C@@H]1C(=O)O)C(=O)NCCCCN=C(N)N` [Compound E-64, E-64], which “Percentage inhibition (%), Reference” value (Cathepsin L) is on record?
Answer: 97%

Question: What about the “Percentage inhibition (%), Reference” value (Cathepsin V) of the same compound?
Answer: 83%

Question: And the “Percentage inhibition (%), Reference” value (Cathepsin S)?
Answer: 91%

Question: And the “Percentage inhibition (%), Reference” value (Cathepsin B)?
Answer: 97%

Question: For `[H]/N=C(/N)c1ccc(NCc2nc3cc(C(=O)N(CCC(=O)O)c4ccccn4)ccc3n2C)cc1` [Dabigatran, reference compound], which inhibition at 20 µM (Activated Protein C) is on record?
Answer: 74%

Question: With `COc1cccc(OC)c1OCCNCC1COc2ccccc2O1` (stereo not shown) [WB 4101] as the compound, how does the Ki (alpha 1A (h)) read?
Answer: 0.24 nM

Question: Which “body weight loss (BWL)” value (Sarc4809 PDX tumors; [7]) does the source give for `CCCCCC(=O)N[C@H]1CSCc2cc(CSCCNC(=O)CN3CCN(CC(=O)O)CCN(CC(=O)O)CCN(CC(=O)O)CC3)cc(c2)CSC[C@@H](C(=O)O)NC(=O)[C@H](Cc2ccccc2)NC(=O)[C@H](CCC(N)=O)NC(=O)[C@H]([C@@H](C)O)NC(=O)[C@@H]2CCCN2C(=O)[C@@H]2CCCN2C1=O` [^177Lu-3BP-3554, metal not drawn] here?
Answer: No treatment-related body weight loss

Question: And the body weight loss (HEK-FAP tumors; [7])?
Answer: No treatment-related body weight loss

Question: With `CCCCCC(=O)N[C@H]1CSCc2cc(CSCCNC(=O)CN3CCN4CCN5CCN(CC3)CC(=O)[O][Lu]([O]C(=O)C4)[O]C(=O)C5)cc(c2)CSC[C@@H](C(=O)O)NC(=O)[C@H](Cc2ccccc2)NC(=O)[C@H](CCC(N)=O)NC(=O)[C@H]([C@@H](C)O)NC(=O)[C@@H]2CCCN2C(=O)[C@@H]2CCCN2C1=O` [^natLu-3BP-3554] as the compound, how does the MTV (Sarc4809 PDX tumors; cold compound (control group), day 31) read?
Answer: 1225±775 mm^3

Question: What about the “mean tumor volume (MTV)” value (HEK-FAP tumors; cold compound, single i.v. injection Day 0, day 14) of the same compound?
Answer: 1392±420 mm^3

Question: With Cystatin C as the compound, how does the “Percentage inhibition (%), Reference” value (Cathepsin F) read?
Answer: 74%

Question: For alpha-dendrotoxin [reference compound], which Ki (KV channel) is on record?
Answer: 0.097 nM
